Measurements as given in patent publication US20150125904A1, “PROBE INCORPORATION MEDIATED BY ENZYMES” (Massachusetts Institute of Technology, priority 2012, published 2015).
Where two headings read alike, the source gives them in different places.

Assays:
W37TLplA = target: T1, W37TLplA (Escherichia coli, UniProt P32099, W38T); experiment: UPLC screening of LplA single mutants for Pacific Blue ligation; format: biochemical, E. coli; conditions: after 12 hours, 500 μM probe
T1 construct: His6; made in house; host or cells: E. coli (bacterial lysate, not purified)
Method: In vitro ligation reactions were assembled as described in the main text with the following modifications. 5 μL bacterial lysate containing LplA was used in place of purified enzyme. Total reaction volume was 25 μL. Instead of LAP peptide, 150 μM purified E2p protein (see Uttamapinant, et al., 2010) was used. Reactions proceeded overnight at 30° C. with 500 μM probe. Ultra Performance Liquid Chromatography (UPLC) was used to detect any product formation. All products were confirmed by in-line mass spectrometry.

Trp37→Gly LplA = Trp37→Gly LplA (Escherichia coli, UniProt P32099, W38G); conditions: 30 min reaction, 500 μM probe; normalized to TCO2/Trp37→Val
Method: (§1) LplA protein was purified as previously described2 and stored at −80° C. in 20 mM Tris-HCl, pH 7.5 supplementated with 10% v/v glycerol. Reactions were quenched with 30 mM EDTA (final concentration) and resolved by HPLC (Varian ProStar) on a C-18 column using a linear gradient of 25-60% acetonitrile in H2O (with 0.1% v/v trifluoroacetic acid) over 14 minutes. Species were detected at 210 nm absorbance. Peaks corresponding to LAP and its trans-cyclooctene adducts were confirmed by ESI mass spectrometry. The extent of conversion was calculated from ratios of peak areas, neglecting minor extinction coefficient changes to LAP due to trans-cyclooctene ligation.
(§2) The relative abilities of wild-type and mutant ligases to ligate TCO1-3 onto LplA acceptor peptide (LAP) were measured by an HPLC assay after 30 min. reaction time. […] Errors, ±1 s. d.

Trp37→Ile LplA = Trp37→Ile LplA (Escherichia coli, UniProt P32099, W38I); conditions: 30 min reaction, 500 μM probe; normalized to TCO2/Trp37→Val
Method: as §1, §2

[1] = target: Trp37→Val LplA (W37VLplA) (Escherichia coli, UniProt P32099, W38V); conditions: 30 min reaction, 500 μM probe; normalized to TCO2/Trp37→Val
Method: as §1, §2

[2] = cited from earlier work
W37VLplA [3] = target: T2, W37VLplA (Escherichia coli, UniProt P32099, W38V); experiment: In vitro coumarin ligation onto LAP2 (HPLC); format: biochemical, E. coli; conditions: 500 μM coumarin probe, 2 μM W37VLplA, 55-minute reaction
Method: Reactions were assembled as follows: 2 μM LplA enzyme, 150 μM LAP2 synthetic peptide (sequence: […]; see Puthenveetil et al., J. Am. Chem. Soc. 2009, 131 16430-16438), 500 μM 7-aminocoumarin 6 probe, 5 mM ATP, and 5 mM Mg(OAc)2 in 25 mM Na2HPO4 pH 7.2. The reaction mixture was incubated at 30° C. for 2 hours and quenched with EDTA (final concentration 100 mM). The mixture was analyzed on a Varian Prostar HPLC using a reverse-phase C18 Microsorb-MV 100 column (250×4.6 mm). Chromatograms were recorded at 210 nm. We used a 10-minute gradient of 30-60% acetonitrile in water with 0.1% trifluoroacetic acid under 1 mL/minute flow rate.
2 μM ^W37VLplA and 500 μM coumarin probe were used in one case. Aliquots from the reaction were collected and quenched with EDTA over 55 minutes. For the other case, 1 μM ^W37VLplA and 100 μM coumarin probe were used, and aliquots were collected and quenched over 70 minutes. After HPLC analysis, percent product conversions were calculated by dividing the product peak area by the sum of (product+starting material) peak areas.

W37VLplA [4] = target: T2, W37VLplA; conditions: previously determined, cited from earlier work
[5] = Photophysical properties, pKa and pH profiles of coumarin probes; format: physicochemical; conditions: 150 μM solutions, pH 3-10 buffers
Method: Fluorescence emission was recorded for 150 μM solutions, using a TECAN Safire Microplate Reader and a plastic transparent-bottomed 384-well plate (Greiner). pH 3-6 buffers were prepared by mixing different ratios of 0.1M acetic acid and 0.1M sodium acetate-trihydrate solutions. pH 7-10 buffers were prepared by mixing different ratios of 0.1M Na2HPO4 and either 0.1M HCl (for pH 7-9 buffers) or 0.1M NaOH (for pH 10 buffer). Final pH adjustments in all buffer solutions were made by adding small amount of 1M HCl or 1M NaOH.

[6] = system: LAP-LDL receptor on HEK cells; experiment: Comparison of Diels-Alder cycloaddition, CuAAC and strain-promoted cycloaddition for cell surface fluorescence labeling; format: cell-based, human; conditions: 3 min staining after TCO2 ligation
Excerpt: (A) HEK cells expressing LAP-LDL receptor and a nuclear cyan fluorescent protein transfection marker (shown in cyan, overlaid with DIC) were labeled in two steps, using three methodologies, as indicated by the scheme: Diels-Alder cycloaddition (left), CuAAC (middle), and strain-promoted cycloaddition (right). Fernandez-Suarez et al., Nature Biotechnology 2007, 25, 1483-1487. For the latter two, LAP was first derivatized with 8-azidooctanoic acid under conditions known to give quantitative yield. DIBO is dibenzylcyclooctyne. In all three cases, the second step was performed for 3 min., using the indicated Alexa 647 conjugates at the three indicated concentrations. Cells were imaged live after brief rinsing. Specific fluorescence staining with 1 μM DIBO-Alexa 647 was detectable (shown with enhanced contrast in inset). (B) Comparing cell viability after cell surface fluorescence labeling. Chinese hamster ovary cells expressing LAP-LDL receptor were labeled using Diels-Alder cycloaddition or CuAAC under the indicated conditions. Cell viability was then measured in triplicate, with untransfected and untreated cells defined as 100% viable. […]
These were previously determined, by subsequent lipoic acid pulse labeling, to give almost quantitative yield of 8-azidooctanoic acid ligation. […]

[7] = Photophysical properties of phycoerythrin and AlexaFluor 568; format: physicochemical

T2 sequence (P32099 2-338 W38V): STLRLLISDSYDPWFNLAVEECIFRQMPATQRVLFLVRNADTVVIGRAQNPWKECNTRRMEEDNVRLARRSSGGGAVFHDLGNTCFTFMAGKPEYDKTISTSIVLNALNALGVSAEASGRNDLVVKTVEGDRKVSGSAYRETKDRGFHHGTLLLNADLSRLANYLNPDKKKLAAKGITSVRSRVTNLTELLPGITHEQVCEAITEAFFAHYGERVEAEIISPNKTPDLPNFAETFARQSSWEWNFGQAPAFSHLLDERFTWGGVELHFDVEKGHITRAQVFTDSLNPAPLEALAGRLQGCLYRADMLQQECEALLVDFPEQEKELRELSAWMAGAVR
Trp37→Gly LplA, sequence (P32099 2-338 W38G): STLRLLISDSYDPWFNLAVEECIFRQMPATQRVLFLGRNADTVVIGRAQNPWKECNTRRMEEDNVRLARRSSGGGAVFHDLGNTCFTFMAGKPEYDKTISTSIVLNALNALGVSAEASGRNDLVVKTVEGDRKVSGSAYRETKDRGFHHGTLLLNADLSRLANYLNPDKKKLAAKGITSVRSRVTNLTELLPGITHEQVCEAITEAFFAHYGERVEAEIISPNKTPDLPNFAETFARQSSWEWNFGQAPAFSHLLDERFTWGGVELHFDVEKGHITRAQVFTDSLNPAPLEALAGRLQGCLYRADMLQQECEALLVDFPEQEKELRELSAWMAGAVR
Trp37→Val LplA (W37VLplA), sequence (P32099 2-338 W38V): as the sequence (P32099 2-338 W38V) above
Trp37→Ile LplA, sequence (P32099 2-338 W38I): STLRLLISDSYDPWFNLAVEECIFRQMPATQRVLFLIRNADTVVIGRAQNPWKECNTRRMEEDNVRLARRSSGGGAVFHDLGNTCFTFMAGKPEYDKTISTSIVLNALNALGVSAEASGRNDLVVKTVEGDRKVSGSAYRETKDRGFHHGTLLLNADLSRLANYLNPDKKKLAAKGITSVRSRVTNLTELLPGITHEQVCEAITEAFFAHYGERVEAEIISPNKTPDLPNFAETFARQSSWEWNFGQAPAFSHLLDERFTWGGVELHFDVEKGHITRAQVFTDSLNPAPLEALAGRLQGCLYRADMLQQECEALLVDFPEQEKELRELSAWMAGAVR
T1 sequence (P32099 2-338 W38T): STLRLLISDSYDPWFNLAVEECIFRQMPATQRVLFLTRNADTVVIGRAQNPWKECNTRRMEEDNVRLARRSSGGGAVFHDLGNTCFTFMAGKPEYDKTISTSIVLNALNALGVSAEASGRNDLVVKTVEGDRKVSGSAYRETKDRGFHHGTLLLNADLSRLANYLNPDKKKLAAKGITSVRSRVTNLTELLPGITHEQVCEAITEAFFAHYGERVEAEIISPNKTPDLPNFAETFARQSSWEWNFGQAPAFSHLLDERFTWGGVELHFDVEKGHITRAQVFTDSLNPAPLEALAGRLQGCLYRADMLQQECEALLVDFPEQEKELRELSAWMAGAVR

Compound: 6,8-difluoro-7-hydroxycoumarin [Pacific Blue]
- conversion to ligation product (W37TLplA): ~50%

Compound: O=C(O)CCCNC(=O)OC[C@H]1[C@@H]2CC/C=C/CC[C@@H]21 [TCO3, (rel-1R,8S,9R,4E)-Bicyclo[6.1.0]non-4-ene-9-ylmethyl-N-butyric acid carbamate]
- Ligation efficiency (average, normalized product percentage), Trp37→Gly (Trp37→Gly LplA): 22.6 ± 2.0%
- Ligation efficiency (average, normalized product percentage), Trp37→Ile (Trp37→Ile LplA): 6.0 ± 0.6%
- Ligation efficiency (average, normalized product percentage), Trp37→Val [1]: 6.6 ± 0.6%

Compound: O=C(O)CCCCNC(=O)c1cc2ccc(O)cc2oc1=O [7-hydroxycoumarin 2]
- emission maximum ([2]; Sun, et al.): 448 nm
- excitation maximum ([2]; Sun, et al.): 386 nm
- extinction coefficient ([2]; Sun, et al.): 36,700 M^−1 cm^−1
- pKa of 7-OH substituent [2]: 7.5
- LAP converted to product (W37VLplA [3]): 46%
- Km (W37VLplA [4]): 56 ± 20 µM
- kcat (W37VLplA [4]): 0.019 s⁻¹
- kcat (W37VLplA [4]; listed as HC4): 0.019 ± 0.004 s⁻¹
- pH dependence of fluorescence [5]: drops sharply at pH values <6.5

Compound: Aminobenzyltetrazine Alexa Fluor 647 [Tz1-Alexa 647]
- dye concentration giving specific signal [6]: 10 nM

Compound: R-phycoerythrin
- brightness relative to AlexaFluor 568 [7]: > 25 times
